Here are results for 1 compound from ChEMBL document CHEMBL1156393, “Pibocin B, the first N-O-methylindole marine alkaloid, a metabolite from the Far-Eastern ascidian Eudistoma species” (2001).

Each structure is given as a SMILES string. ≈ marks a conversion by molar mass, not a printed value.

The experiment can be described thus: Cytotoxicity against mouse EAC cells. The experiment is classed as functional. The settings on record: Ehrlich, read-out: ED50 (the source's name).

In the case of `COn1c(Br)c2c3c(cccc31)[C@H]1C[C@@H](C)CN(C)[C@@H]1C2` [PIBOCIN B], the EC50 turned out to be 25 µg/mL (≈ 71.6 µM).
